# Laboratory results: publication PMC10818546, “CYP1-Activation and Anticancer Properties of Synthetic Methoxylated Resveratrol Analogues” (Molecules, 2024)
# Like-named read-outs stand apart in the source and are kept apart here.
# Key:
# [1] = system: MCF7 (TCDD); test: MTT cytotoxicity assay, TCDD-induced MCF7 cells; format: cell-based, human; conditions: for IC50: Homo sapiens
# Experimental: (§1) The antiproliferative activity of the resveratrol analogues was investigated using a human breast cell line panel, which has been characterised for CYP1 expression in our laboratories. IC50 values for both cis- and trans-isomers were determined using a standard 3-[4,5-dimethylthiazol-2-yl]-2,5-diphenyl tetrazolium bromide (MTT) cell viability assay and are shown in Table 1 (trans-stilbene analogues) and Table 2 (cis-stilbene analogues).
# (§2) MCF7 cells are both ER positive and Ah receptor positive and have been well documented for their CYP1 expression, and it is known that treatment with TCDD elevates CYP1A1 and CYP1B1 expression. The cells were treated with DMSO (0.1%) for 24 h for constitutive expression, whereas for inducible CYP1 expression, the cells were treated with TCDD (10 nM) for 24 h.
# (§3) A standard MTT (3-[4,5-dimethylthiazol-2-yl]-2,5-diphenyl tetrazolium bromide) cell viability assay was employed to evaluate the cytotoxicity of the stilbenes prepared. The MTT assay is a rapid quantitative spectrophotometric method for determining cell growth (viability) due to necrosis or apoptosis in monolayer-cultured cell lines in response to external factors. It is widely employed to evaluate the cytotoxicity of potential medicinal agents.
# (§4) MCF7 cells were grown in RPMI-1640 medium with phenol red and 10% (v/v) heat-inactivated (heated to 56 °C for 45 min) foetal calf serum. MDA-468 cells were grown in RPMI-1640 medium with 10% (v/v) heat-inactivated foetal calf serum and L-glutamine (2 mM) without phenol red. MCF-10A cells were grown in Dulbecco’s modified Eagle’s medium/ Ham’s F-12 medium (1:1) with 5% (v/v) heat-inactivated foetal calf serum, epidermal growth factor (20 ng/mL), insulin ([…]) and hydrocortisone (500 ng/mL). Cells were maintained at 37 °C, 5% CO2/95% air with 100% humidity and passaged every 2–3 days using trypsin EDTA solution (0.25% w/v). Adhered cells at sub confluence were harvested for experimental use.
# (§5) Aliquots of cell suspensions (100 µL at 2 × 10^3 cells per ml) were dispensed into sterile 96-well microtiter flat-bottomed plates. For the MDA468 and MCF10A cell lines, the plates were incubated at 37 °C, 5% CO2/95% air with 100% humidity for 24 h prior to the addition of test compounds. For MCF7 cells, after allowing approximately 4 h for cells to adhere, 100 µL of medium containing TCDD (from 100 mM stock in DMSO) or medium with 0.2% (v/v) DMSO was added to give a final concentration of 10 nM TCDD and 0.1% (v/v) DMSO. After 24 h, the medium was aspirated and replaced with fresh medium (100 µL) before the addition of test compounds.
# (§6) Then, 100 µL aliquots of test compounds were added within 30 min into the wells from a 100 mM stock solution in DMSO and serially diluted to give final concentrations of […], 0.01, 0.003, 0.001 and 0.0003 µM. […] The cells were allowed to grow for 96 h at 5% CO2, 37 °C, to give 80–90% confluence in the control wells, after which 50 µL of 2 mg/mL MTT (final concentration 0.4 mg/mL) in sterile phosphate buffer was added to each well and the plates were further incubated for 2 h. All medium was aspirated and the formazan precipitate generated by viable cells was solubilised by 150 µL of DMSO. All the plates were vortexed and the absorbance at 540 nm was determined using a SpectraMax M5 plate reader (Molecular Devices, Wokingham, UK).
# (§7) Results were expressed as a percentage of the control value versus the negative logarithm of the molar drug concentration range using GraphPad Prism (Version 5.00). Relative toxicities of each compound within each cell line were expressed as 50% of growth inhibition (IC50). All determinations were carried out in quadruplicate.
# [2] = system: MCF10A; test: MTT cytotoxicity assay, MCF10A non-tumour control cells; format: cell-based; conditions: Homo sapiens, MCF-10A, read-out: IC50 MCF10A
# Experimental: as §1
# MCF10A cells are non-tumourigenic human mammary epithelial in origin which have been spontaneously immortalised without chemical intervention. CYP1 activity in MCF10A cells is negligible. […] Thus, MCF10A cell line is commonly used as a control in cytotoxicity assays.
# as §3, §4, §5, §6, §7
# [3] = system: MDA468; test: MTT cytotoxicity assay, MDA468 cells; format: cell-based, human; conditions: for IC50: Homo sapiens, read-out: IC50 MDA468; for TS = tumour selectivity = IC50 MCF10A/IC50 MDA468: ratio of IC50 values
# Experimental: as §1
# MDA468 cells represent an aggressive multi-drug-resistant tumour type and are ER negative but are aryl hydrocarbon (Ah) receptor positive in the presence of TCDD [46].
# as §3, §4, §5, §6, §7
# [4] = system: MCF7; test: MTT cytotoxicity assay, MCF7 cells (uninduced); format: cell-based, human; conditions: Homo sapiens, read-out: IC50 MCF7
# Experimental: as §1, §2, §3, §4, §5, §6, §7
# [5] = MCF7, MTT assay, 96 h incubation, cells induced with 10 nM TCDD for 24 h, read-out: IC50 MCF7 (TCDD)
# [6] = MTT assay, 96 h incubation, non-tumour control cells
# [7] = MCF7, MTT assay, 96 h incubation, 37 °C, means of quadruplicate
# [8] = 96 h, MTT assay, 96 h incubation, non-tumour control cells
# [9] = MCF7, 96 h, MTT assay, 96 h incubation, 37 °C, means of quadruplicate
Compound,"IC50 [1, 5] [µM]","IC50 [2, 6] [µM]","IC50 ([3]; MTT assay, 96 h incubation) [µM]",TS = tumour selectivity = IC50 MCF10A/IC50 MDA468 [3],"IC50 [4, 7] [µM]","IC50 [2, 8] [µM]","IC50 [4, 9] [µM]",other results
COc1cc(/C=C/c2ccc(Cl)cc2)cc(OC)c1OC [DMU555],100,8,12,0.7,100,,,
COc1ccc(/C=C/c2ccc(OC)cc2)cc1 [DMU205],28,,100,1,,100,28,
COc1cc(/C=C/c2ccc(O)cc2)cc(OC)c1OC [DMU281],28,,3.6,6,,23,30,
CCOc1ccc(/C=C/c2cc(OC)c(OC)c(OC)c2)cc1 [DMU260],5,3.7,1.8,two,5,,,AF = activation factor = IC50 MCF7/MCF7 (TCDD) ([1]; ratio of IC50 values): one; TS = tumour selectivity = IC50 MCF10A/IC50 MDA468 ([3]; listed as 260): 2
COc1cc(/C=C\c2ccc(I)cc2)cc(OC)c1OC [DMU510],0.06,,0.006,2,,0.01,0.06,
COc1ccc2cc(/C=C/c3cc(OC)c(OC)c(OC)c3)ccc2c1 [DMU567],42,,0.04,three,,0.11,100,TS = tumour selectivity = IC50 MCF10A/IC50 MDA468 ([3]; listed as 567): 3
"Oc1ccc(/C=C/c2cc(O)cc(O)c2)cc1 [Resveratrol, (E)-4,3′,5′-trihydroxy stilbene]",33,50,29,1.7,31,,,
COc1ccc(/C=C/c2cc(OC)cc(OC)c2)cc1 [DMU271],14,> 100,> 100,,14,,,
COc1cc(/C=C/c2ccc3c(c2)OCO3)cc(OC)c1OC [DMU220],2.3,3.9,0.99,four,3.4,,,TS = tumour selectivity = IC50 MCF10A/IC50 MDA468 ([3]; listed as 220): 4
COc1ccc(/C=C\c2ccc(OC)c(OC)c2OC)cc1 [DMU548],7.1,100,30,,8,,,
COc1ccc(/C=C\c2cccc(OC)c2)cc1 [DMU241C],26,> 100,> 100,,29,,,
COc1ccc(/C=C\c2cc(OC)cc(OC)c2)cc1 [DMU210],24,> 100,> 100,,26,,,
COc1ccc(/C=C\c2cc(OC)c(OC)c(OC)c2)cc1 [DMU213],,,,four,,,,"IC50 ([1]; MCF7, read-out: IC50 MCF7 (TCDD)): 0.44 µM; IC50 ([2]; 96 h): 2 µM; fold less toxic to MDA-468 compared to DMU212 [3]: 500 fold; IC50 ([3]; 96 h): 0.5 µM; TS = tumour selectivity = IC50 MCF10A/IC50 MDA468 ([3]; listed as 213): 4; IC50 ([4]; MCF7, 96 h): 2.5 µM"
COc1ccc(/C=C\c2ccc(OC)cc2)cc1 [DMU265],20,,> 100,,,> 100,25,
COc1ccc(/C=C/c2cccc(OC)c2)cc1 [DMU241],24,> 100,> 100,,27,,,
COc1cc(/C=C/c2ccc(I)cc2)cc(OC)c1OC [DMU509],15,,13,1,,13,15,
COc1ccc(/C=C\c2cc(OC)c(OC)c(OC)c2)cc1OC [DMU1024],9,,6,2,,10,9,
COc1ccc(/C=C\c2cccc(C)c2)cc1 [DMU216C],30,,> 100,,,> 100,26,
COc1cc(/C=C\c2ccc(Cl)cc2)cc(OC)c1OC [DMU556],0.8,35,7,5,0.8,,,
COc1ccc(CCc2cc(OC)c(OC)c(OC)c2)cc1 [DMU224],0.06,,0.005,,,0.06,0.06,
COc1ccc(/C=C/c2cc(OC)c(O)c(OC)c2)cc1 [DMU291],20,,1,100,,100,20,
CCOc1ccc(/C=C\c2cc(OC)c(OC)c(OC)c2)cc1 [DMU261],0.13,0.06,0.07,0.9,0.04,,,
COc1cc(/C=C\c2ccc(Br)cc2)cc(OC)c1OC [DMU558],0.05,0.05,0.04,1,0.08,,,
